From patent US6399052B2, “Treating hair by targeting enzymes” (Unilever Home & Personal Care USA division of Conopco, Inc., priority 1999, dated 2002)
Peptide text beside a SMILES is read from it. * marks the point of attachment. AMC = Cc1cc(=O)oc2cc(N*)ccc12; Cbz = O=C(OCc1ccccc1)*

Legend:
[1] = system: cathepsin L-type protease activity of hair extract; test: peptidyl-AMC protease assay of hair fibre extract; assay type: biochemical, human
Experimental: Hair fibres taken from approx. 5 mm from the scalps of male and female individuals, aged 25-35, were cleaned, dried and then ground in liquid N2, and homogenised with an Ystral Homogeniser (high shear) using a 10 mm probe in extraction buffer (50 mM Citrate-Phosphate pH6.0, 2M NaCl).
Triton X-100 (2% stock) was added to the homogenate to a final concentration of 0.1%, and intermittently mixed by gentle agitation and incubated on ice for 1 hour. Large hair debris was allowed to precipitate and the solution was centrifuged at 13000 rpm for 5 minutes to remove insoluble protein. The resulting supernatant, containing soluble protein was dialysed (MWCO ca […]) in 50 mM citrate-phosphate, pH 6.0. Glycerol was added to the dialysed extract to 20% (v/v). The extracts were then aliquotted and stored at −20° C. until required.
With the above information, it was decided to investigate the protease profile of the hair extracts with the use of more specific peptide substrates (peptidyl-7-amido-4-methylcoumarin (peptidyl-AMC) substrates). Seven peptidyl-AMC substrates were used to study the protease types within the hair extract. These were selected on the basis of their specificity for individual protease species.
Stock solutions of each peptidyl-AMC substrate (Bachem) were prepared at 10 mM in DMSO and stored in aliquots at 4° C. Each aliquot was diluted to 1 mM with MQ water, prior to use. All assays (100 μl final volume) were routinely conducted in triplicate. For the measurement of cysteine protease activity, the standard assay contained 50 mM citrate-phosphate buffer pH 6.0, 100 μM peptidyl-AMC, 5 mM cysteine and approximately 1 μg protein extract. The assays were initiated by the addition of substrate and incubated at 30° C. for 2 hours. The reactions were terminated with the addition of 1 ml ‘stop’ solution (100 mM sodium monochloroacetate, 30 mM sodium acetate, 70 mM acetic acid).
The hydrolysed AMC was measured with the use of a fluorimeter set to 370 nm (excitation) and 460 nm (emission). Protease activity was quantified using standard concentrations of AMC. The fluorescence of each substrate and the hair extract were also measured and these values subtracted from the final fluorescence of each reaction, to give the value of fluorescence increase due to AMC liberation.

human steroid sulphatase = molecular target: T1, human steroid sulphatase (Homo sapiens, UniProt P08842); settings: substrate cholesterol-3-sulphate; cited from earlier work
T1 sequence (P08842 22-583): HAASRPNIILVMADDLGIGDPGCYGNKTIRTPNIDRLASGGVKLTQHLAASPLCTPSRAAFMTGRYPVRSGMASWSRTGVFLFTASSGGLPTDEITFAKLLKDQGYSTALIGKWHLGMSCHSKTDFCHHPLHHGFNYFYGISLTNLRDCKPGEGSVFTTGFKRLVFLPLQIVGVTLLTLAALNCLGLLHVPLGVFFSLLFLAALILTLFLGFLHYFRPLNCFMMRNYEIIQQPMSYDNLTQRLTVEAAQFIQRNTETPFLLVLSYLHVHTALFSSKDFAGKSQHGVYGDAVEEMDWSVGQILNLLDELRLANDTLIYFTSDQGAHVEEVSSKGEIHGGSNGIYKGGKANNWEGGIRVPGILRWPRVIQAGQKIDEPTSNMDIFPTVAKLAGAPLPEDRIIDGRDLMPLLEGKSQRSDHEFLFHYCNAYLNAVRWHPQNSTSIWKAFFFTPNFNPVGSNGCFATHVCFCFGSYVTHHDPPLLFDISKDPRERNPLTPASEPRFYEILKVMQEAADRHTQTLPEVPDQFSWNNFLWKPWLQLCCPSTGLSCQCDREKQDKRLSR

[2] = hair fibre extract, substrate z-Phe-Arg-AMC

CC(C)C[C@H](NC(=O)[C@H]1O[C@@H]1C(=O)O)C(=O)NCCCCN=C(N)N (relative stereo) [E-6464, L-trans-epoxysuccinyl-leucylamido(4-guanido)butane]
inhibition of the z-Phe-Arg-AMC hydrolysing activity of hair extract [1, 2]: potently inhibited

CC(C)CCC[C@@H](C)[C@H]1CC[C@H]2[C@@H]3CC=C4C[C@@H](OS(=O)(=O)O)CC[C@]4(C)[C@H]3CC[C@]12C [cholesterol-3-sulphate]
Km (human steroid sulphatase): 5 µM

N[C@@H](CS)C(=O)O [cysteine]
stimulation of the z-Phe-Arg-AMC hydrolysing activity of hair extract [1, 2]: stimulated

Cc1cc(=O)oc2cc(NC(=O)C(CCCN=C(N)N)NC(=O)C(Cc3ccccc3)NC(=O)OCc3ccccc3)ccc12 (stereo not drawn) [z-Phe-Arg-AMC] (Cbz-Phe-Arg-{AMC}; configuration not given here)
apparent Vmax of cathepsin L-type activity ([1]; hair extract, 1 mg of extract from approx. 9 g hair): 1.66 nmoles AMC produced per minute per mg hair extract | hydrolysis by the hair extracts compared with the other peptidyl-AMC substrates ([1]; seven peptidyl-AMC substrates, 100 μM, pH 6.0, 30° C., 2 hours): most hydrolysed
